This note sets out measurements from PMC12644462, “A novel radiosensitizer α-sulfoquinovosyl-acylpropanediol (SQAP) inhibits DNA repair pathways and sensitize cells to cancer chemotherapeutic agents” (Scientific Reports, 2025).

Counter-ions that a name gives are not always drawn. Like-named read-outs stand apart in the source and are kept apart here.

Data set [1] relates to CML-6M and STSA-1 cells. Kind of data set: Colony formation assay, chemosensitization by SQAP (qualitative). The class given is cell-based, canine. Conditions: for sensitization of chemotherapeutic agent by SQAP: combined with 30 µM SQAP. As for the experimental part:
Sensitivity to radiation or chemical reagents was assessed through colony formation assays. After trypsinized single cells were plated to form 20–200 colonies per dish and then treated with SQAP for 3 h in normoxia or hypoxia, the cells were irradiated. For drug sensitivity study, trypsinized cells were plated and then treated with various dosage of testing agents. After seven days of incubation, colonies were fixed, stained and scored. Regression curves were drawn from survival fraction, and D10 values (doses to achieve 10% cell survival) were calculated by Prism 8 (GraphPad software, San Diego, CA, USA) from at least three independent experiments. Oxygen enhancement ratio (OER) and sensitization enhancement ratio (SER) values were calculated from D10 values. OER values were calculated from the D10 value in hypoxia divided by the D10 value in normoxic condition. SER values were calculated from the D10 value without SQAP divided by the D10 value with SQAP.

In data set [2] the test system is Chinese hamster V79 cells. Kind of data set: Colony formation assay, radio- and chemosensitization. In kind it is cell-based. The procedure:
For hypoxia irradiation, cell cultures were placed in Aneropak Kenki system (Mitsubishi Gas Chemical, Tokyo, Japan) with oxygen meter to confirm pO2 below 0.1%. Cells were kept in hypoxia for 3 h before irradiation.

For data set [3], the system named is STSA-1 cells. Put plainly: Colony formation assay, drug sensitivity with SQAP. The class given is cell-based, canine.
Method: (§1) Sensitivity to radiation or chemical reagents was assessed through colony formation assays. After trypsinized single cells were plated to form 20–200 colonies per dish and then treated with SQAP for 3 h in normoxia or hypoxia, the cells were irradiated. For drug sensitivity study, trypsinized cells were plated and then treated with various dosage of testing agents. After seven days of incubation, colonies were fixed, stained and scored[24]. Regression curves were drawn from survival fraction, and D10 values (doses to achieve 10% cell survival) were calculated by Prism 8 (GraphPad software, San Diego, CA, USA) from at least three independent experiments. Oxygen enhancement ratio (OER) and sensitization enhancement ratio (SER) values were calculated from D10 values. OER values were calculated from the D10 value in hypoxia divided by the D10 value in normoxic condition. SER values were calculated from the D10 value without SQAP divided by the D10 value with SQAP.
Data set [4] concerns CML-6M cells. Put plainly: Colony formation assay, drug sensitivity with SQAP. The class given is cell-based, canine.
Method: as §1

Regarding `N.N.O=C([O-])C1(C(=O)[O-])CCC1.[Pt+2]` [carboplatin], the “sensitization of chemotherapeutic agent by SQAP” value in data set [1] is reported as “significant sensitization”.

As to `N.N.[Cl][Pt][Cl]` [cisplatin], the “change of D10 value of the agent with SQAP treatment” value (“change of D10 value of the agent” below) in data set [2] (V79, P < 0.05) was “significant reduction”.

Turning to `CC(=O)O[C@H]1C(=O)[C@@]2(C)[C@H]([C@H](OC(=O)c3ccccc3)[C@]3(O)C[C@H](OC(=O)[C@H](O)[C@@H](NC(=O)c4ccccc4)c4ccccc4)C(C)=C1C3(C)C)[C@]1(OC(C)=O)CO[C@@H]1C[C@@H]2O` [Taxol], in data set [2], the “effect of SQAP on cytotoxicity of the agent” value (“effect of SQAP” below) is given as “increased the cytotoxicity”.

For the compound `C[C@]12C=CC(=O)C=C1CC[C@@H]1[C@@H]2[C@@H](O)C[C@@]2(C)[C@H]1CC[C@]2(O)C(=O)CO` [prednisolone], the “cytotoxicity (D10 not available)” value in data set [1] (colony formation) was “low cytotoxicity”. Moreover, the “sensitization of chemotherapeutic agent by SQAP” value in data set [1] is given as “no sensitization”.

Take `CO[C@@]12[C@H](COC(N)=O)C3=C(C(=O)C(C)=C(N)C3=O)N1C[C@@H]1N[C@@H]12` [MMC, Mitomycin C]: the “effect of SQAP” value in data set [2] (V79, 10 and 20 µM SQAP) is given as “increased the cytotoxicity”.

For the compound `CC[C@@]1(O)C(=O)OCc2c1cc1n(c2=O)Cc2cc3ccccc3nc2-1` [camptothecin, Camptothecin], the “effect of SQAP” value in data set [2] (V79, 10 and 20 µM SQAP) is given as “increased the cytotoxicity”. In data set [2] (V79, P < 0.05), the “change of D10 value of the agent” value is reported as “significant reduction”.

Regarding `O=NN(CCCl)C(=O)NC1CCCCC1` [lomustine], in data set [1], the “sensitization of chemotherapeutic agent by SQAP” value is “no sensitization”.

On to `O=C1c2c(O)ccc(O)c2C(=O)c2c(NCCNCCO)ccc(NCCNCCO)c21` [Mitoxantrone, Mitoxantrone dihydrochloride], for which, in data set [1], the “sensitization of chemotherapeutic agent by SQAP” value is on record as “significant sensitization”.

Take `COS(C)(=O)=O` [MMS, methyl methanesulfonate]: in data set [2], the “effect of SQAP” value is listed as “increased the cytotoxicity”.

For the compound `COc1cc([C@@H]2c3cc4c(cc3[C@@H](O[C@@H]3O[C@@H]5CO[C@@H](C)O[C@H]5[C@H](O)[C@H]3O)[C@H]3COC(=O)[C@H]23)OCO4)cc(OC)c1O` [etoposide], the “effect of SQAP” value in data set [2] is on record as “increased the cytotoxicity”.

For the compound `O=C(O)CCCc1ccc(N(CCCl)CCCl)cc1` [chlorambucil, Chlorambucil], the “sensitization of chemotherapeutic agent by SQAP” value in data set [1] is “no sensitization”.

Consider `COc1cccc2c1C(=O)c1c(O)c3c(c(O)c1C2=O)C[C@@](O)(C(=O)CO)C[C@@H]3O[C@H]1C[C@H](N)[C@H](O)[C@H](C)O1` [doxorubicin, Doxorubicin hydrochloride], for which the D10 is on record as 4.66 nM in data set [3] (STSA-1, with 30 µM SQAP); 8.11 nM in data set [3] (STSA-1, without SQAP); 8.94 nM in data set [4] (with 30 µM SQAP); 18.0 nM in data set [4] (without SQAP). In data set [1], the “sensitization of chemotherapeutic agent by SQAP” value was “most dramatic sensitization”.

Consider bleomycin, for which, in data set [2], the “change of D10 value of the agent” value is reported as “significant reduction”; the “sensitization to bleomycin by SQAP” value is “sensitized and not”.
